Test systems include ACHN renal; BT-549 breast; CAKI-1 renal; COLO 205 colon; HT29 colon; KM12 colon; MALME-3M melanoma; NCI-H522 lung; SF-268 CNS; T-47D breast.
Common to all, as to test: growth of human tumour cells (NCI), 48 h

Structures are written as SMILES.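 96-well plates; 48 h exposure; 5 concentrations. Endpoints by linear interpolation between flanking doses. Not reached: highest tested concentration assigned. The concentration for 50% growth inhibition is given as GI50. TGI marks complete inhibition of growth.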

As for `O=c1[nH]cnc2c(C3NC(CO)C(O)C3O)c[nH]c12` (stereo not given), the GI50 in the assay with ACHN renal, in the assay with BT-549 breast, in the assay with CAKI-1 renal, in the assay with COLO 205 colon, with HT29 colon and with KM12 colon was greater than 100 µM throughout. The GI50 with MALME-3M melanoma, with NCI-H522 lung, in the assay on SF-268 CNS and in the assay on T-47D breast was greater than 100 µM in each case. Further, the TGI in the assay on ACHN renal, with BT-549 breast, in the assay on CAKI-1 renal, in the assay with COLO 205 colon, with HT29 colon and in the assay with KM12 colon was greater than 100 µM throughout. For the same compound, the TGI with MALME-3M melanoma, in the assay with NCI-H522 lung, in the assay with SF-268 CNS and in the assay with T-47D breast was greater than 100 µM throughout.
Regarding `COc1cc(/C=C/[N+](=O)[O-])cc(Br)c1OC`, the GI50 in the assay with ACHN renal was 2.5 µM; with BT-549 breast, 2.77 µM; with CAKI-1 renal it was 1.89 µM; in the assay on COLO 205 colon, 2.17 µM; with HT29 colon, 1.81 µM; with KM12 colon, 3 µM. For the same compound, the GI50 is 2.61 µM in the assay on MALME-3M melanoma, 0.816 µM with NCI-H522 lung, 3.64 µM in the assay on SF-268 CNS and 2.57 µM in the assay with T-47D breast. The TGI in the assay on ACHN renal worked out at 6.49 µM; in the assay with BT-549 breast, 6.62 µM; in the assay on CAKI-1 renal, 5.23 µM; in the assay with COLO 205 colon, 4.58 µM; in the assay with HT29 colon, 3.57 µM; in the assay with KM12 colon it was 10.1 µM. Also, the TGI came to 8.13 µM in the assay on MALME-3M melanoma, 2.83 µM in the assay on NCI-H522 lung, 13.2 µM in the assay with SF-268 CNS and 8.48 µM with T-47D breast.
With `CCn1c2ccccc2c2cc(/C=C(/C#N)C(N)=O)ccc21`, the GI50 was greater than 76 µM with ACHN renal; 0.938 µM with BT-549 breast; 5.53 µM in the assay on CAKI-1 renal; 4.65 µM in the assay on COLO 205 colon; 5.18 µM in the assay on HT29 colon; 13.5 µM in the assay with KM12 colon. Moreover, the GI50 in the assay with MALME-3M melanoma was greater than 75.2 µM; with NCI-H522 lung it was 11.7 µM; in the assay on SF-268 CNS it was 19.9 µM; with T-47D breast, 3.33 µM. Also, the TGI with ACHN renal was greater than 100 µM; with BT-549 breast it was 44.7 µM; in the assay with CAKI-1 renal, greater than 77.9 µM; with COLO 205 colon, greater than 100 µM; with HT29 colon, greater than 100 µM; with KM12 colon, greater than 100 µM. The TGI with MALME-3M melanoma, in the assay with NCI-H522 lung, in the assay on SF-268 CNS and with T-47D breast was greater than 100 µM each time.
For the compound `C[CH2][Pb]([CH2]C)([CH2]C)[O]C(=O)c1ccc2ccccc2n1`, the GI50 with ACHN renal, in the assay with BT-549 breast, in the assay with CAKI-1 renal, with COLO 205 colon, in the assay on HT29 colon and in the assay on KM12 colon was greater than 10 µM in each case. The GI50 in the assay on MALME-3M melanoma, with NCI-H522 lung, with SF-268 CNS and with T-47D breast was greater than 10 µM throughout. In addition, the TGI in the assay with ACHN renal, in the assay on BT-549 breast, in the assay with CAKI-1 renal, in the assay on COLO 205 colon, in the assay with HT29 colon and in the assay on KM12 colon was greater than 10 µM in each case. Also, the TGI in the assay on MALME-3M melanoma, in the assay on NCI-H522 lung, with SF-268 CNS and in the assay on T-47D breast was greater than 10 µM in each case.
